In patent US8269043B2, “Bicyclic aryl sphingosine 1-phosphate analogs” (Biogen Idec MA Inc., priority 2008, dated 2012):

These compounds were tested on circulating lymphocytes (assay: Lymphopenia assay: circulating lymphocytes after oral gavage). Settings: C57bl/6 male mice, oral gavage 0.5 and 5 mg/kg in 30% HPCD, blood 5 and 24 hours after administration.
Format: in vivo
Protocol: Measurement of circulating lymphocytes: Compounds were dissolved in 30% HPCD. Mice (C57bl/6 male, 6-10 week-old) were administered 0.5 and 5 mg/kg of a compound via oral gavage. 30% HPCD was included as a negative control.
Blood was collected from the retro-orbital sinus 5 and 24 hours after drug administration under short isoflurane anesthesia. Whole blood samples were subjected to hematology analysis. Peripheral lymphocyte counts were determined using an automated analyzer (HEMAVET™ 3700). Three mice were used to assess the lymphocyte depletion activity of each compound screened.
Compounds of formula (I) induced full lymphopenia at times as short as 3 hours or less to as long as 48 hours or more; for example, 4 to 36 hours, or 5 to 24 hours. In some cases, a compound of formula induced full lymphopenia at 5 hours and partial lymphopenia at 24 hours. The dosage required to induce lymphopenia can be in the range of, e.g., 0.001 mg/kg to 100 mg/kg; or 0.01 mg/kg to 10 mg/kg. The dosage can be 10 mg/kg or less, such as 5 mg/kg or less, 1 mg/kg or less, or 0.1 mg/kg or less
In the case of `CC(C)(C)[C@H]1CC[C@H](Oc2ccc3cc([C@](C)(N)CO)ccc3c2C(F)(F)F)CC1` (relative stereo) [Example 124, (S)-2-amino-2-[6-(4-trans-tert-butyl-cyclohexyloxy)-5-trifluoromethyl-naphthalen-2-yl]-propan-1-ol], the “Lymphopenia (ED50 mg/kg)” value is reported as >5 mg/kg. In the case of `CC(C)(C)[C@H]1CC[C@H](Oc2ccc3cc([C@@](C)(N)CO)ccc3c2)CC1` [Example 49, (R)-2-amino-2-(6-(trans-4-tert-butylcyclohexyloxy)naphthalen-2-yl)propan-1-ol], the “Lymphopenia (ED50 mg/kg)” value is reported as 0.4 mg/kg. For `CCC(C)(C)[C@H]1CC[C@H](Oc2ccc3cc([C@@](C)(N)CO)ccc3c2)CC1` (relative stereo) [Example 78, (R)-2-Amino-2-[6-(4-trans-tert-pentylcyclohexyloxy)naphthalen-2-yl]propan-1-ol], the “Lymphopenia (ED50 mg/kg)” value was 0.5 to 5 mg/kg. With `Cl.NC(CO)(CO)c1ccc2cc(O[C@H]3C[C@@H](COCc4ccccc4)C3)ccc2c1` [Example 66] the “Lymphopenia (ED50 mg/kg)” value was <0.5 mg/kg. `C[C@](N)(CO)c1ccc2cc(O[C@H]3C[C@@H](COCc4ccccc4)C3)ccc2c1` (relative stereo) [Example 77] was tested, and the “Lymphopenia (ED50 mg/kg)” value was <0.5 mg/kg.

Same assay, conditions: Mus musculus, Lymphocyte, po, C57bl/6 male mice, oral gavage 0.5 and 5 mg/kg in 30% HPCD, blood 5 and 24 hours after administration
`CCCCC1CCC(Oc2ccc3cc([C@@](C)(N)CO)ccc3c2)CC1` (stereo partly drawn) [Example 7, (R)-2-amino-2-(6-(4-butylcyclohexyloxy)naphthalen-2-yl)propan-1-ol] was tested, and the ED50 was < 0.5 mg/kg. In the case of `CC(C)(C)[C@H]1CC[C@H](Oc2ccc3cc([C@@](C)(N)CO)ccc3c2Br)CC1` [Example 237, (R)-2-amino-2-(5-bromo-6-(trans-4-tert-butylcyclohexyloxy)naphthalen-2-yl)propan-1-ol], the ED50 is reported as < 0.5 mg/kg. In the case of `CCCC[C@H]1CC[C@@H](Oc2ccc3cc(C(N)(CO)CO)ccc3c2)CC1` [Example 14, 2-amino-2-(6-(cis-4-butylcyclohexyloxy)naphthalen-2-yl)propane-1,3-diol], the ED50 is reported as > 5 mg/kg. `C[C@](N)(CO)c1ccc2cc(OC3CCC(C4CCCC4)CC3)ccc2c1` (stereo partly drawn) [Example 94, (R)-2-Amino-2-[6-(4-cyclopentyl-cyclohexyloxy)-naphthalen-2-yl]-propan-1-ol] gave an ED50 of 0.5 to 5 mg/kg. `Cc1ccc(Oc2ccc3cc([C@@](C)(N)CO)ccc3c2)cc1` [Example 180, (R)-2-Amino-2-(6-(p-tolyloxy)naphthalen-2-yl)propan-1-ol] showed an ED50 of 0.5 to 5 mg/kg. With `CC(C)[C@H]1CC[C@H](Oc2ccc3cc([C@@](C)(N)CO)ccc3c2C(F)(F)F)CC1` [Example 168, (R)-2-Amino-2-(6-(trans-4-isopropylcyclohexyloxy)-5-(trifluoromethyl)naphthalen-2-yl)propan-1-ol] the ED50 was < 0.5 mg/kg. In the case of `CCCC(F)(F)[C@H]1CC[C@H](Oc2ccc3cc([C@@](C)(N)CO)ccc3c2)CC1` [Example 311, (R)-2-amino-2-(6-(trans-4-(1,1-difluorobutyl)cyclohexyloxy)naphthalen-2-yl)propan-1-ol], the ED50 is reported as < 0.5 mg/kg. `C[C@](N)(CO)c1ccc2c(C(F)(F)F)c(O[C@H]3CC[C@H](C(F)(F)F)CC3)ccc2c1` [Example 266, (R)-2-Amino-2-[5-trifluoromethyl-6-(trans-4-trifluoromethylcyclohexyloxy)-naphthalen-2-yl]propan-1-ol] was tested, and the ED50 was < 0.5 mg/kg. With `CCCC[C@H]1CC[C@@H](Oc2ccc3cc([C@@](C)(N)CO)ccc3c2)CC1` [Example 6, (R)-2-amino-2-(6-(cis-4-butylcyclohexyloxy)naphthalen-2-yl)propan-1-ol] the ED50 was 0.75 mg/kg. `C[C@](N)(CO)c1ccc2cc(O[C@H]3CC[C@@H](C(F)(F)F)CC3)ccc2c1` [Example 259, (R)-2-Amino-2-[6-(cis-4-trifluoromethyl-cyclohexyloxy)-naphthalen-2-yl]-propan-1-ol] gave an ED50 of 0.5 to 5 mg/kg. Work on `C[C@](N)(CO)c1ccc2cc(Oc3ccc(F)c(Cl)c3)ccc2c1` [Example 185, (R)-2-Amino-2-(6-(3-chloro-4-fluorophenoxy)naphthalen-2-yl)propan-1-ol] yielded an ED50 of 0.5 to 5 mg/kg. `CC(C)Oc1ccc(Oc2ccc3cc([C@@](C)(N)CO)ccc3c2)cc1` [Example 189, (R)-2-Amino-2-[6-(4-isopropoxy-phenoxy)-naphthalen-2-yl]-propan-1-ol] was tested, and the ED50 was < 0.5 mg/kg. `CC(N)(CO)c1ccc2c(C(F)(F)F)c(O[C@H]3CC[C@H](C(C)(C)C)CC3)ccc2c1` (relative stereo) [Example 276, 2-Amino-2-[6-(trans-4-tert-butyl-cyclohexyloxy)-5-trifluoromethyl-naphthalen-2-yl]-propan-1-ol] was tested, and the ED50 was < 0.5 mg/kg. For `C[C@](N)(CO)c1ccc2cc(Oc3ccc(C(F)(F)F)cc3)ccc2c1` [Example 181, (R)-2-Amino-2-(6-(4-(trifluoromethyl)phenoxy)naphthalen-2-yl)propan-1-ol], the ED50 was > 5 mg/kg. Work on `CC(C)(C)c1ccc(Oc2ccc3cc([C@@](C)(N)CO)ccc3c2)cc1` [Example 179, (R)-2-Amino-2-(6-(4-tert-butylphenoxy)naphthalen-2-yl)propan-1-ol] yielded an ED50 of 0.5 to 5 mg/kg. For `C=Cc1c(O[C@H]2CC[C@H](C(C)(C)C)CC2)ccc2cc([C@@](C)(N)CO)ccc12` [Example 219, (R)-2-amino-2-(6-(trans-4-tert-butylcyclohexyloxy)-5-vinylnaphthalen-2-yl)propan-1-ol], the ED50 was < 0.5 mg/kg. With `CC(F)(F)[C@H]1CC[C@H](Oc2ccc3cc([C@@](C)(N)CO)ccc3c2)CC1` [Example 299, (R)-2-amino-2-(6-(trans-4-(1,1-difluoroethyl)cyclohexyloxy)naphthalen-2-yl)propan-1-ol] the ED50 was < 0.5 mg/kg. Compound `CCCC[C@H]1CC[C@@H](Oc2ccc3cc([C@@](C)(N)CO)ccc3c2C(F)(F)F)CC1` [Example 17, (R)-2-amino-2-(6-(cis-4-butylcyclohexyloxy)-5-(trifluoromethyl)naphthalen-2-yl)propan-1-ol] has an ED50 of 0.07 mg/kg. With `CN[C@@](C)(CO)c1ccc2cc(OC3CCC(C(C)(C)C)CC3)ccc2c1` (stereo partly drawn) [Example 112, (R)-2-[6-(4-tert-butyl-cyclohexyloxy)-naphthalen-2-yl]-2-methylamino-propan-1-ol] the ED50 was 0.5 to 5 mg/kg. In the case of `CC(C)(C)[C@H]1CC[C@H](Oc2ccc3cc([C@@](C)(N)CO)ccc3c2-c2cccc(Cl)c2)CC1` [Example 231, (R)-2-amino-2-(6-(trans-4-tert-butylcyclohexyloxy)-5-(3-chlorophenyl)naphthalen-2-yl)propan-1-ol], the ED50 is reported as > 5 mg/kg. With `CC(C)CCOc1cccc(Oc2ccc3cc(C(N)(CO)CO)ccc3c2)c1` [Example 198, 2-Amino-2-(6-(3-(isopentyloxy)phenoxy)naphthalen-2-yl)propane-1,3-diol] the ED50 was 0.5 to 5 mg/kg. With `NC(CO)(CO)c1ccc2cc(Oc3ccc(Oc4ccccc4)cc3)ccc2c1` [Example 245, 2-amino-2-(6-(4-phenoxyphenoxy)naphthalen-2-yl)propane-1,3-diol] the ED50 was < 0.5 mg/kg. For `CCC(F)(F)[C@H]1CC[C@H](Oc2ccc3cc([C@@](C)(N)CO)ccc3c2)CC1` [Example 305, (R)-2-amino-2-(6-(trans-4-(1,1-difluoropropyl)cyclohexyloxy)naphthalen-2-yl)propan-1-ol], the ED50 was < 0.5 mg/kg. For `CC(C)(C)[C@H]1CC[C@H](Oc2ccc3cc([C@@](C)(N)CO)ccc3c2C2CC2)CC1` [Example 215, (R)-2-amino-2-(6-(trans-4-tert-butylcyclohexyloxy)-5-cyclopropylnaphthalen-2-yl)propan-1-ol], the ED50 was < 0.5 mg/kg. Work on `CCc1ccc(Oc2ccc3cc([C@@](C)(N)CO)ccc3c2)cc1` [Example 176, (R)-2-Amino-2-(6-(4-ethylphenoxy)naphthalen-2-yl)propan-1-ol] yielded an ED50 of 0.5 to 5 mg/kg. In the case of `C[C@](N)(CO)c1ccc2cc(Oc3cccc(Br)c3)ccc2c1` [Example 174, (R)-2-Amino-2-(6-(3-bromophenoxy)naphthalen-2-yl)propan-1-ol], the ED50 is reported as > 5 mg/kg. `CC(C)Cc1ccc(Oc2ccc3cc([C@@](C)(N)CO)ccc3c2)cc1` [Example 178, (R)-2-Amino-2-(6-(4-isobutylphenoxy)naphthalen-2-yl)propan-1-ol] was tested, and the ED50 was < 0.5 mg/kg. `CC(C)(C)[C@H]1CC[C@H](Oc2ccc3cc(C4(N)COC4)ccc3c2C(F)(F)F)CC1` [Example 153, 3-(6-(trans-4-tert-butylcyclohexyloxy)-5-(trifluoromethyl)naphthalen-2-yl)oxetan-3-amine] was tested, and the ED50 was < 0.5 mg/kg. In the case of `CCc1ccccc1Oc1ccc2cc([C@@](C)(N)CO)ccc2c1` [Example 182, (R)-2-Amino-2-(6-(2-ethylphenoxy)naphthalen-2-yl)propan-1-ol], the ED50 is reported as 0.5 to 5 mg/kg. In the case of `Cc1cc(C)cc(Oc2ccc3cc([C@@](C)(N)CO)ccc3c2)c1` [Example 187, (R)-2-Amino-2-(6-(3,5-dimethylphenoxy)naphthalen-2-yl)propan-1-ol], the ED50 is reported as 0.5 to 5 mg/kg. For `CC(C)(C)[C@H]1CC[C@H](Oc2ccc3cc([C@@](C)(N)CO)ccc3c2-c2ccccc2)CC1` [Example 229, (R)-2-amino-2-(6-(trans-4-tert-butylcyclohexyloxy)-5-phenylnaphthalen-2-yl)propan-1-ol], the ED50 was > 5 mg/kg. `NC(CO)(CO)c1ccc2cc(Oc3cccc(OCc4ccccc4)c3)ccc2c1` [Example 194, 2-Amino-2-(6-(3-(benzyloxy)phenoxy)naphthalen-2-yl)propane-1,3-diol] was tested, and the ED50 was < 0.5 mg/kg. With `CC(C)c1cccc(Oc2ccc3cc([C@@](C)(N)CO)ccc3c2)c1` [Example 177, (R)-2-Amino-2-(6-(3-isopropylphenoxy)naphthalen-2-yl)propan-1-ol] the ED50 was > 5 mg/kg.
